From patent US20040132969A1, “Antibodies, peptides, analogs and uses thereof” (priority 2000, published 2004)
“Also recorded” adds a separate entry of the source.

Assays:
[1] = tested on: chick chorioallantoic membrane (CAM); test: CAM cell proliferation assay (DNA synthesis, methyl-[3H]thymidine), substance alone; format: in vivo
Description: (§1) Cell proliferation was measured using the chick chorioallantoic membrane (CAM) model as described previously (4, 29, 30).
(§2) Briefly, on day zero, fertile hens' eggs, are placed in an egg incubator 37.5° C. with pointed ends facing downwards. On day 3, using a 2 ml syringe with a 21G needle, 2 ml of albumen is removed and the eggs returned to the incubator. On day 4, each egg is punctured by a needle at the blunt end into the air space. A square of shell is then removed, causing the egg contents to drop into the space left by collapse of the air space at the end of the egg and the withdrawal of albumen. The volume of the space above the dropped CAM is approximately 7 ml. The square opening in the shell is covered with Sellotape (RTM). The eggs then have to be kept level in the incubator without tilting. On day 10, the surviving eggs are organised into groups of preferably no less than 10. Test and control samples are prepared and each egg receives 0.3 ml of sample injected through the Sellotape (RTM) onto the upper surface of the CAM.
The technique of removal of each CAM is simple but crucial to the rationale of achieving results expressed as total DPM per CAM. […]
(§3) The assay used is based on quantitative measurement of DNA synthesis in the CAM after exposure to control and test substances 18 h after application in liquid form to the whole “dropped” area of each CAM (4,29). […]

HUVEC and fibroblasts = test: Neutral Red cell metabolism cytotoxicity assay; format: cell-based, human; details: HUVEC and fibroblast monocultures; 72 hours
Description: In order to determine whether the fibrin E analogue peptides WTM33, WTM34, WTM35, WTM36, and WTM37 are cytotoxic when applied to the HUVEC and fibroblasts used in the Angiosys™ angiogenesis assay, these reagents were examined in two different cytotoxicity assays. To simplify performance of these assays and discriminate between fibroblasts and HUVEC, cells were grown in monocultures rather than together and then treated with the experimental reagents as described below.
A Neutral Red cell metabolism assay was used to determine the cytotoxicity to HUVEC and fibroblasts of the fibrin E analogue peptides. This assay works on the basis of colorimetric measurement of a red dye which, is reported to be taken up into the lysosomes of uninjured cells. Thus the stronger the colour signal obtained from a well of cells, the greater the percentage of cells remaining viable within that well. HUVEC cells were inoculated into wells of 96 wells at a density of 5×10^3 cells per well, in endothelial cell culture medium. Fibroblasts were similarly seeded 5×10^3 cells per well. The cells were incubated for 24 hours under standard conditions to permit adherence and growth, and then treated for 72 hours with fresh medium containing fibrin E peptides over the same range of concentrations used in the Angiosys™ angiogenesis assay. For each concentration of each of the six peptides, four replicate wells of each cell type were treated and then assayed. Following incubation with the test compounds, the medium was removed and replaced with 200 μl per well of fresh medium containing 3.57 mg neutral red per 100 ml. The cells were incubated with this neutral red solution for 3 hours, after which this solution was decanted and replaced with 100 μl 1% formaldehyde/1% CaCl2. This was rapidly decanted and replaced in turn with 200 μl 50% ethanol/1% acetic acid, which was incubated at room temperature for 30 minutes to extract the neutral red from the cells. The plates were then read in a 96 well plate-format spectrophotometer, measuring absorbance at 540 nm. Mean absorbance values from each group of four wells were calculated and expressed as a percentage±standard deviation of the mean value obtained from control wells incubated in the absence of fibrin E analogue peptide.

[2] = tested on: FDP induced cell proliferation in the chick CAM; test: CAM cell proliferation assay in the presence of FDP; format: in vivo
Description: as §1, §2
The technique of removal of each CAM is simple but crucial to the rationale of achieving results expressed as total DPM per CAM. By 20 min, methyl-[^3H]thymidine is incorporated only into the CAM which has been directly exposed. Beyond 30 min, [^3H]thymidine becomes detectable in adjacent CAM that is applied to the shell, via uptake from the bloodstream. Each CAM is removed by holding the egg in the palm of one hand, Sellotape window face down, and piercing the side with pointed scissors well above the level of the dropped CAM. Scissors are used to cut round the shell, and the residual yolk and embryo tipped out into a disposal container once the umbilical vessels connecting the embryo to the CAM are cut. […]
as §3

Sequence: LHADPDLGVLCPTGC [WTM34]
- maximum inhibition in the CAM assay ([1]; peptide alone, highest dose tested (20 micromoles)): 60%
- effect on cell proliferation relative to control ([1]; substance alone, across the range of concentrations tested): inherent inhibitory effect on cell stimulation; also recorded: inhibits cell proliferation and vessel formation in the CAM; also recorded: inhibitory effects
- cytotoxicity / cell viability, Neutral Red assay (HUVEC and fibroblasts): not cytotoxic; also recorded: no toxicity
- effect on FDP-induced stimulation of cell proliferation ([2]; low / lower concentrations of peptide, 5 μM FDPs): significant inhibition of the FDP induced stimulation
- effect on FDP-induced stimulation of cell proliferation ([2]; peptide at 4.633 μM and 9.265 μM, 5 μM FDPs): does not appear to affect the FDP-induced stimulation of cell proliferation
- effect on FDP-induced stimulation of cell proliferation ([2]; peptide in the presence of FDPs (5 μM) / fibrin): some inhibitory effect
